System: type I collagen, normal human dermal fibroblasts
Assay: Collagen assay: type I collagen by sandwich ELISA in fibroblast culture-conditioned medium
Format: cell-based
Details: 4 days, LbGp 1.25 mg/ml and/or palmitoyl hexapeptide-6 0.20 mg/ml
Procedure: Normal human dermal fibroblasts (Cambrex, Walkersville, Md.) were seeded into a 96-well plate and grown to confluence. They were then challenged with several concentrations of the test samples for 4 days. The fibroblast culture-conditioned medium was harvested and tested for type I collagen by sandwich ELISA using affinity-purified antibodies. Magnesium ascorbyl phosphate (MAP) was tested along with the sample as a positive control.

palmitoyl hexapeptide-6 [Hydrophobic peptide alone]
Type I collagen Assay: 420

— patent US7807625B2, “Anti-wrinkle composition” (Grant Industries, Inc, priority 2006, dated 2010)
